Data reported in US20220040349A1, “ANTIVIRAL METHODS AND COMPOSITIONS” (priority 2020, published 2022).
Entries after “also recorded” stand apart in the source; their conditions may differ.

Key:
E coli = assay: Light-activated killing of bacteria (Example III-1); assay type: cell-based
Text: No killing of bacteria in the dark has yet been observed.

E. coli [1] = assay: Killing of E. coli suspended in solution under irradiation or dark incubation (Part IV); assay type: cell-based; details: for killing of E. coli / killing of E. coli at longer times: 1-10 μg/mL; for killing of E. coli: five minutes of irradiation; for killing of E. coli at longer times: longer than five minutes; for activity against E. coli in suspension in the dark: dark incubation
Text: (§1) In the current study we have observed Compound E, Compound D, and Formula X in aqueous media with suspensions of E. coli and SARS-CoV-2 for Compound E and with suspensions of E. coli for Compound D and Formula X. We have also studied these oligomers as supported coatings on various supporting materials including wipe scaffolds, commercial Kimwipes, and proprietary materials from Diamond Wipes and HYDAC.

SARS-CoV-2 [2] = assay: Compound E-coated glass fiber filter: inactivation of SARS-CoV-2 under cool white light, plaque assay on Vero E6 cells; assay type: cell-based; details: for inactivation of the virus: coated on glass fiber, cool white
mammal models = details: in vivo
E. coli [3] = assay: Killing of E. coli by compound coated on wet wipe surface or filter; assay type: cell-based
Text: Compound E was applied to a wet wipe surface and also to the surface of a filter for filtration of air or water.
as §1

SARS-CoV-2 [4] = assay: Compound E in solution: inactivation of SARS-CoV-2 under cool white light, plaque assay on Vero E6 cells; assay type: cell-based
bacteria = assay: Antibacterial activity of oligomer IX under visible light and in the dark; assay type: cell-based
SARS-CoV-2 [5] = assay type: cell-based; details: cool white; 30 minutes irradiation (earliest point)

## Cn1cc[n+](CCCOc2ccc(C#Cc3ccc(C#Cc4ccc(OCCC[n+]5ccn(C)c5)cc4)cc3)cc2)c1 [Compound D]
E coli
  relative reactivity: more reactive than Compound E
  anti-bacterial activity using LuzChem cool white light: excellent anti-bacterial activity
  killing of bacteria in the dark: No killing
  light-activated killing of bacteria: excellent light-activated killing
E. coli [1]; near UV
  killing of E. coli: ~99%
  killing of E. coli at longer times: complete killing
E. coli [1]
  activity against E. coli in suspension in the dark: neither compound showed any killing; also recorded: not under visible light or dark conditions
  activity against E. coli in suspension under near-UV: had activity
E. coli [1]; visible light
  activity against E. coli in suspension under visible light: not under visible light or dark conditions

## Cn1cc[n+](CCCOc2ccc(C#Cc3ccc(C#Cc4ccc(OCCC[n+]5ccn(C)c5)cc4)s3)cc2)c1 [Compound E]
SARS-CoV-2 [2]; 10 minutes irradiation
  inactivation of the virus: about 90%
SARS-CoV-2 [2]; 30 minutes
  inactivation of the virus: 3 log
SARS-CoV-2 [2]; visible light and near-UV
  activity against SARS-Cov-2 on a filter: had activity
E coli
  anti-bacterial activity using LuzChem cool white light: excellent anti-bacterial activity
  killing of bacteria in the dark: No killing
  light-activated killing of bacteria: excellent light-activated killing
Mammal models
  toxicity against mammal models: no toxicity
E. coli [1]; visible light
  killing of E. coli: ~99%
  killing of E. coli at longer times: complete killing
  activity against E. coli in suspension under visible light: had activity
E. coli [1]
  activity against E. coli in suspension in the dark: neither compound showed any killing; also recorded: not in dark conditions
  activity against E. coli in suspension under near-UV: had activity
E. coli [3]; applied to wet wipe surface and filter surface
  light-activated killing of E. coli on coated surface: strong light-activated killing
E. coli [3]; dark conditions
  activity against E. coli on a filter in the dark: not in dark conditions
E. coli [3]; surface immersed in E. coli suspension
  activity when coated surface immersed in suspension of E. coli: activity was retained
E. coli [3]; visible light and near-UV
  activity against E. coli on a filter: had activity
SARS-CoV-2 [4]; dark conditions
  activity against SARS-Cov-2 in suspension in the dark: not in dark conditions
SARS-CoV-2 [4]; solution (10 μg/mL), cool white, 5 minutes of irradiation
  inactivation of the virus: > 95%
SARS-CoV-2 [4]; solution, cool white, 10 minutes or longer
  inactivation at longer irradiation: complete deactivation inactivation
SARS-CoV-2 [4]; visible light and near-UV
  activity against SARS-Cov-2 in suspension: had activity

## C[N+](C)(C)CCCOc1ccc(C#Cc2ccc(C#Cc3ccc(OCCC[N+](C)(C)C)cc3)cc2)cc1 [Formula IX]
bacteria; dark
  activity against bacteria in the dark: active against bacteria in the dark
bacteria; visible light
  activity under visible light irradiation: not active under visible light irradiation

## C[N+](C)(C)CCCOc1ccc(C#Cc2ccc(C#Cc3ccc(OCCC[N+](C)(C)C)cc3)s2)cc1 [Formula X]
SARS-CoV-2 [5]
  virus present: no virus present
E. coli [1]
  activity against E. coli in suspension in the dark: considerable dark reactivity; also recorded: had activity
  activity against E. coli in suspension under near-UV: activity under visible light and near-UV; also recorded: had activity
E. coli [1]; visible light
  activity against E. coli in suspension under visible light: activity under visible light and near-UV; also recorded: had activity
